{"source": "patent US8637274B2", "about": "“Inhibitor for the formation of gamma-secretase complex” (Kowa Company, Ltd., priority 2003, dated 2014)", "format_in_all_cases": "cell-based", "key": {"[1]": {"tested_on": "flotillin-1 (marker protein of lipid rafts), SH-SY5Y cell", "assay": "Immunoblotting of lipid raft marker flotillin-1 in sucrose density-gradient cell membrane fractions", "conditions": "for flotillin in the lipid rafts fraction (structure of lipid rafts): 48 hours, FIG. 3D", "method": "(§1) SH-SY5Y cell line (Invitrogen) was subcultured in a complete medium (DMEM (Sigma) containing 10% of fetal bovine serum (Sigma), 100 units/mL of penicillin and […] of streptomycin) using a dish of 15 cm diameter at 37° C.\n(§2) The SH-SY5Y cell was cultured in a dish of 15 cm diameter, and the cells reached confluent growth in the dish was washed with phosphate buffered saline (PBS). The cells were detached from the dish using cell scraper and recovered in PBS, then centrifuged at 9807 m/s^2 for 5 minutes. The precipitated cells were suspended in buffer R (20 mM Tris-HCl pH 7.6, 150 mM NaCl, 1 mM EDTA) containing 200 μL of a mixture of 2% CHAPSO and proteases (Complete protease mixture) (Roche). Solubilization of the cell was performed by means of leaving the cell suspension for standing on an ice bath for 20 minutes. After solubilizing, 800 μL of the buffer R containing 56.25% sucrose was added to make the final concentration to be 45% sucrose and 0.4% CHAPSO, and placed in the bottom of centrifuging tube. Further, 3 mL of the buffer R containing 35% sucrose and 1 mL of the buffer R containing 5% sucrose were overlaid sequentially on top of the layers. After centrifugation at 980700 m/s^2 (32000 rpm) for 16 hours at 4° C. using Beckman ultracentrifuge equipped with SW55 rotor, each 500 μL aliquot was withdrawn from top as fractions.\n(§3) After SDS-polyacrylamide gel electrophoresis was carried out for each fraction obtained in the Reference Example 2, immunoblotting was performed. The antibodies used were nicastrin N-19 (Santa Cruz) as a nicastrin recognizing antibody, anti-G1L3 as an antibody recognizing C-terminal region of presenilin 1, anti-G2L as an antibody recognizing C-terminal region of presenilin 2, anti-PNT3 as a PEN-2 recognizing antibody, Flotillin-1 (BD Sciences) as a flotillin-1 recognizing antibody, and Calnexin (BD Biosciences) as a calnexin recognizing antibody.\nAfter reacting at room temperature for 1 hour or at 4° C. overnight, the gels were washed twice with TBS-Tween (20 mM Tris-buffered saline, pH 7.4, 0.05% Tween 20). […]"}, "[2]": {"tested_on": "active complex of γ-secretase (nicastrin, presenilin-1, presenilin-2, Pen-2) in lipid rafts of SH-SY5Y cell", "assay": "Immunoblotting of γ-secretase constituents in sucrose density-gradient cell membrane fractions", "conditions": "for constituents of γ-secretase (nicastrin, presenilin-1, presenilin-2) in lipid rafts fraction (fraction 3): FIG. 3A-3C", "method": "as §1, §2, §3\nAfter reacting at room temperature for 1 hour or at 4° C. overnight, the gels were washed twice with TBS-Tween (20 mM Tris-buffered saline, pH 7.4, 0.05% Tween 20). Then, the gels were reacted with HRP-conjugated anti mouse IgG antibody, anti goat IgG antibody, or anti rabbit IgG antibody each for 1 hour, and washed with TBS-Tween. And then, an X-ray film was exposed to the chemiluminescence generated using SuperSignal West Dura (Pierce).\n(§4) The SH-SY5Y cell was cultured in a dish of 15 cm diameter, and the cells reached confluent growth in the dish were washed with PBS. After that, methyl-β-cyclodextrin (Sigma) dissolved in DMEM to make the final concentration to be 0 to 2 mM was added to the dish, and cultured at 37° C. for another 30 minutes. These cells were processed and fractionated according to the method described in the Reference Example 2, and subjected to the immunoblotting.\nThe SH-SY5Y cell was cultured in a dish of 15 cm diameter and the cells of just before arriving confluent growth in a dish were washed with PBS. After that, the cells were cultured in DMEM containing 5% of LPDS, 250 μM of mevalonic acid and 50 μM of compactin or 5 μM of pitavastatin as a cholesterol synthesis inhibitor for 48 hours. These cells were processed and fractionated according to the method described in the Reference Example 2, and subjected to the immunoblotting."}, "[3]": {"tested_on": "cholesterol in lipid rafts of SH-SY5Y cell", "assay": "Quantification of cholesterol content in sucrose density-gradient cell membrane fractions (lipid rafts = fraction 3)", "conditions": "for cholesterol content in lipid rafts (fraction 3): 5% LPDS, 48 hours, FIG. 4", "method": "as §1, §2, §4\nThe SH-SY5Y cell was cultured in a dish of 15 cm diameter and the cells of just before arriving confluent growth in a dish were washed with PBS. […]"}, "[4]": {"conditions": "50 μM compactin plus 250 μM mevalonic acid"}, "[5]": {"conditions": "50 μM compactin plus 250 μM mevalonic acid, 48 hours"}, "[6]": {"conditions": "5 μM pitavastatin plus 250 μM mevalonic acid"}, "[7]": {"conditions": "5 μM pitavastatin plus 250 μM mevalonic acid, 48 hours"}}}
{"compound": "CC[C@H](C)C(=O)O[C@H]1CCC=C2C=C[C@H](C)[C@H](CC[C@@H]3C[C@@H](O)CC(=O)O3)[C@H]21", "note": "[compactin, (+)-(1S,3R,7S,8S.8aR)-1,2,3,7,8,8a-hexahydro-7-methyl-8-[2-[(2R,4R)-tetrahydro-4-hydroxy-6-oxo-2H-pyran-2-yl]ethyl]-1-naphthyl (S)-2-methylbutyrate]", "values": [{"measurement": "flotillin in the lipid rafts fraction (structure of lipid rafts)", "setting": "[1]; [4]", "value": "still remained in the lipid rafts fraction"}, {"measurement": "formation of an active complex of γ-secretase in lipid rafts", "setting": "[2]; [5]", "value": "inhibited the formation of an active complex of γ-secretase in lipid rafts"}, {"measurement": "constituents of γ-secretase (nicastrin, presenilin-1, presenilin-2) in lipid rafts fraction (fraction 3)", "setting": "[2]; [5]", "value": "disappeared from lipid rafts fraction"}, {"measurement": "cholesterol content in lipid rafts (fraction 3)", "setting": "[3]; [4]", "value": "decreased"}]}
{"compound": "O=C(O)C[C@H](O)C[C@H](O)/C=C/c1c(C2CC2)nc2ccccc2c1-c1ccc(F)cc1", "note": "[pitavastatin, (3R,5S,6E)-7-[2-cyclopropyl-4-(4-fluorophenyl)-3-quinolyl]-3,5-dihydroxy-6-heptenoic acid]", "values": [{"measurement": "flotillin in the lipid rafts fraction (structure of lipid rafts)", "setting": "[1]; [6]", "value": "still remained in the lipid rafts fraction"}, {"measurement": "formation of an active complex of γ-secretase in lipid rafts", "setting": "[2]; [7]", "value": "inhibited the formation of an active complex of γ-secretase in lipid rafts"}, {"measurement": "constituents of γ-secretase (nicastrin, presenilin-1, presenilin-2) in lipid rafts fraction (fraction 3)", "setting": "[2]; [7]", "value": "disappeared from lipid rafts fraction"}, {"measurement": "cholesterol content in lipid rafts (fraction 3)", "setting": "[3]; [6]", "value": "decreased"}]}
{"compound": "methyl-β-cyclodextrin", "values": [{"measurement": "distribution of flotillin (marker protein of lipid rafts) among fractions / raft structure", "setting": "[1]; methyl-β-cyclodextrin 0 to 2 mM, 30 minutes, FIG. 1E", "value": "moved from the original position of the lipid rafts of fraction 3 to fraction 9 and 10"}, {"measurement": "formation of an active complex of γ-secretase in lipid rafts", "setting": "[2]; methyl-β-cyclodextrin 0 to 2 mM, 30 minutes", "value": "inhibited the formation of an active complex of γ-secretase in lipid rafts"}, {"measurement": "constituents of γ-secretase (nicastrin, presenilin-1, presenilin-2, Pen-2) in lipid rafts fraction (fraction 3)", "setting": "[2]; methyl-β-cyclodextrin 0 to 2 mM, 30 minutes, FIG. 1A-1D", "value": "disappeared from lipid rafts fraction"}, {"measurement": "cholesterol in lipid rafts (fraction 3)", "setting": "[3]; methyl-β-cyclodextrin 0 to 2 mM, 30 minutes, 37° C., FIG. 2", "value": "removed from lipid rafts"}]}
